Literature values, collected in patent US5925665A, “Imidazoline compounds” (Adir Et Compagnie, priority 1996, dated 1999).

Test system: mice
Settings: general statement on reference products

| Compound | duration of immobility, known antidepressants |
| --- | --- |
| CN(C)CCCN1c2ccccc2CCc2ccccc21 [imipramine] | decrease this duration of immobility |
| CNCCCN1c2ccccc2CCc2ccccc21 [desipramine] | decrease this duration of immobility |
